Laboratory results from the supplement of paper PMC10307832.

What was measured:
Assay in all cases: relative viability (nuclei count vs DMSO), 5 days (fraction); higher = more cells survive
QS11 + Tozasertib = compound: C1CC2=C(C1)C=C(C=C2)OC3=NC(=C4C(=N3)N(C=N4)CC5=CC=C(C=C5)C6=CC=CC=C6)N[C@@H](CC7=CC=CC=C7)CO [QS11] + Cc1cc(Nc2cc(N3CCN(C)CC3)nc(Sc3ccc(NC(=O)C4CC4)cc3)n2)n[nH]1 [Tozasertib] (partner 0.1 µM)
How it was run: (§1)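 Each reported value is a median over duplicate plates. It expresses relative viability: treated-well nuclei count divided by vehicle-well nuclei count. Lung cancer cell lines in 1536-well plates were dosed by pin tool a day after seeding, alone with one drug or with a fixed anchor-drug dose plus five library-drug doses (not always all listed) in √10 steps, and nuclei were counted after 5 days.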

AZ628 + OSI-027 = compound: CC1=C(C=C(C=C1)NC(=O)C2=CC(=CC=C2)C(C)(C)C#N)NC3=CC4=C(C=C3)N=CN(C4=O)C [AZ628] + COc1cccc2cc(-c3nc([C@H]4CC[C@H](C(=O)O)CC4)n4ncnc(N)c34)[nH]c12 [OSI-027] (partner 0.5 µM)
How it was run: as §1

[1] = compound: C[As](C)SC[C@H](NC(=O)CC[C@H](N)C(=O)O)C(=O)NCC(=O)O [Darinaparsin] + C[C@]1(O)C[C@@H](c2nc(-c3ccc4ccc(-c5ccccc5)nc4c3)c3c(N)nccn32)C1 [Linsitinib] (partner 1 µM)
How it was run: as §1

[2] = compound: C[As](C)SC[C@H](NC(=O)CC[C@H](N)C(=O)O)C(=O)NCC(=O)O [Darinaparsin] + Nc1ncn([C@H]2C[C@H](O)[C@@H](CO)O2)c(=O)n1 [Decitabine] (partner 2 µM)
How it was run: as §1

Work on 201T yielded a relative viability (QS11 + Tozasertib; first compound 0.08 µM) of 0.956, a relative viability (QS11 + Tozasertib; first compound 0.253 µM) of 1.03 and a relative viability (QS11 + Tozasertib; first compound 0.8 µM) of 0.694. For the same cell line, the relative viability (QS11 + Tozasertib; first compound 2.53 µM) was 0.892, the relative viability (QS11 + Tozasertib; first compound 8 µM) was 0.584 and the relative viability (AZ628 + OSI-027; first compound 0.08 µM) was 0.838. It also gave a relative viability (AZ628 + OSI-027; first compound 0.253 µM) of 0.707, a relative viability (AZ628 + OSI-027; first compound 0.8 µM) of 0.689 and a relative viability (AZ628 + OSI-027; first compound 2.53 µM) of 0.761. The relative viability (AZ628 + OSI-027; first compound 8 µM) was 0.849, the relative viability ([1]; first compound 0.08 µM) was 1.04 and the relative viability ([1]; first compound 0.8 µM) was 1.03. The relative viability ([1]; first compound 2.53 µM) was 1.04, the relative viability ([1]; first compound 8 µM) was 1.06 and the relative viability ([2]; first compound 0.08 µM) was 0.853. It also gave a relative viability ([2]; first compound 0.8 µM) of 0.83, a relative viability ([2]; first compound 2.53 µM) of 0.875 and a relative viability ([2]; first compound 8 µM) of 0.861.
For A549, the relative viability ([1]; first compound 0.08 µM) was 0.756, the relative viability ([1]; first compound 0.8 µM) was 0.612 and the relative viability ([1]; first compound 2.53 µM) was 0.389. For the same cell line, the relative viability ([1]; first compound 8 µM) was 0.632, the relative viability ([2]; first compound 0.8 µM) was 0.209 and the relative viability ([2]; first compound 2.53 µM) was 0.229. For the same cell line, the relative viability ([2]; first compound 8 µM) was 0.291.
For A-427, the relative viability (QS11 + Tozasertib; first compound 0.08 µM) was 0.21, the relative viability (QS11 + Tozasertib; first compound 0.253 µM) was 0.207 and the relative viability (QS11 + Tozasertib; first compound 2.53 µM) was 0.209. The relative viability (QS11 + Tozasertib; first compound 8 µM) was 0.201, the relative viability (AZ628 + OSI-027; first compound 0.08 µM) was 0.336 and the relative viability (AZ628 + OSI-027; first compound 0.253 µM) was 0.286. The relative viability (AZ628 + OSI-027; first compound 0.8 µM) was 0.236, the relative viability (AZ628 + OSI-027; first compound 2.53 µM) was 0.197 and the relative viability (AZ628 + OSI-027; first compound 8 µM) was 0.169. For the same cell line, the relative viability ([1]; first compound 0.08 µM) was 1.2, the relative viability ([1]; first compound 0.8 µM) was 1.09 and the relative viability ([1]; first compound 2.53 µM) was 1.13. For the same cell line, the relative viability ([1]; first compound 8 µM) was 1.12, the relative viability ([2]; first compound 0.08 µM) was 0.569 and the relative viability ([2]; first compound 0.8 µM) was 0.517. The relative viability ([2]; first compound 2.53 µM) was 0.581 and the relative viability ([2]; first compound 8 µM) was 0.493.
ABC-1 showed a relative viability (QS11 + Tozasertib; first compound 0.08 µM) of 0.191, a relative viability (QS11 + Tozasertib; first compound 0.253 µM) of 0.157 and a relative viability (QS11 + Tozasertib; first compound 0.8 µM) of 0.174. It also gave a relative viability (QS11 + Tozasertib; first compound 2.53 µM) of 0.168, a relative viability (QS11 + Tozasertib; first compound 8 µM) of 0.183 and a relative viability (AZ628 + OSI-027; first compound 0.08 µM) of 0.644. It also gave a relative viability (AZ628 + OSI-027; first compound 0.253 µM) of 0.402, a relative viability (AZ628 + OSI-027; first compound 0.8 µM) of 0.53 and a relative viability (AZ628 + OSI-027; first compound 2.53 µM) of 0.491. For the same cell line, the relative viability (AZ628 + OSI-027; first compound 8 µM) was 0.297, the relative viability ([1]; first compound 0.08 µM) was 0.801 and the relative viability ([1]; first compound 0.8 µM) was 0.849. It also gave a relative viability ([1]; first compound 2.53 µM) of 0.735, a relative viability ([1]; first compound 8 µM) of 1.04 and a relative viability ([2]; first compound 0.08 µM) of 1.16. The relative viability ([2]; first compound 0.8 µM) was 1.09, the relative viability ([2]; first compound 2.53 µM) was 1.1 and the relative viability ([2]; first compound 8 µM) was 0.953.
BEN was tested, and the relative viability (QS11 + Tozasertib; first compound 0.08 µM) was 0.441, the relative viability (QS11 + Tozasertib; first compound 0.253 µM) was 0.529 and the relative viability (QS11 + Tozasertib; first compound 0.8 µM) was 0.504. The relative viability (QS11 + Tozasertib; first compound 2.53 µM) was 0.485, the relative viability (QS11 + Tozasertib; first compound 8 µM) was 0.486 and the relative viability (AZ628 + OSI-027; first compound 0.08 µM) was 0.318. It also gave a relative viability (AZ628 + OSI-027; first compound 0.253 µM) of 0.278, a relative viability (AZ628 + OSI-027; first compound 0.8 µM) of 0.32 and a relative viability (AZ628 + OSI-027; first compound 2.53 µM) of 0.281. For the same cell line, the relative viability (AZ628 + OSI-027; first compound 8 µM) was 0.267, the relative viability ([1]; first compound 0.08 µM) was 0.947 and the relative viability ([1]; first compound 0.8 µM) was 1.02. The relative viability ([1]; first compound 2.53 µM) was 0.764, the relative viability ([1]; first compound 8 µM) was 1.11 and the relative viability ([2]; first compound 0.08 µM) was 0.724. It also gave a relative viability ([2]; first compound 0.8 µM) of 0.72, a relative viability ([2]; first compound 2.53 µM) of 0.812 and a relative viability ([2]; first compound 8 µM) of 0.811.
